For the test, the system named is TCL1-driven CLL bearing BTK^C481S mutation. The test is described as follows: TCL1-driven CLL bearing BTK C481S mutation in C57BL/6 mice, circulating leukemia burden. To be noted: once daily (QD) for 19 days. It counts as in vivo, mouse. The source says:
EIA-TCL1 CLL transgenic mice (Crogen Pharmaceuticals LLC) were crossed with BTK^C481S knock-in mice (AbbVie) to generate Eμ-TCL1 transgenic mice carrying the BTK^C481S mutation. The leukemic splenocytes from these BTK^C481S Eμ-TCL1 transgenic mice (Passage 1) were transplanted intravenously into C57BL/6 mice, leading to CLL development in the peripheral blood and spleen. When circulating CLL burden (CD5+CD19+ cells as described below) in the recipient mice reached over 90%, their splenocytes (Passage 2) containing high CLL burden were cryopreserved and used for CLL efficacy studies. […]
To determine the absolute/total leukocyte numbers, complete blood counts were determined for each mouse using the Genesis™ veterinary hematology analyzer (Oxford Science Inc.).
Cells isolated from murine peripheral blood mononuclear cells (PMBCs) were collected to determine antigen expression. […] Cells were gated on CD45+, and thereafter the percentage of cells that were CD5+CD19+ from that subset was calculated. […]
Whole blood was collected weekly post tumor implantation via submandibular cheek bleeding. Circulating leukemic burden was calculated by multiplying absolute/total leukocyte count with the percentage of the leukocytes have the immunophenotype CD19^+CD5^+. […]

These results are taken from patent US20240109877A1, “PYRIMIDINES FOR DEGRADING BRUTON'S TYROSINE KINASE” (AbbVie Inc., priority 2022, published 2024).

Each structure is given as a SMILES string.

Turning to `Cc1cc(-c2cc(Nc3ccc(N4CCN(CCc5ccc(N6CCC(=O)NC6=O)cc5)C[C@@H]4C)cn3)ncn2)ccc1[C@@H](C)NC(=O)c1nc(C(C)(C)C)no1` [Example 1, 3-tert-butyl-N-[(1R)-1-{4-[6-({5-[(2S)-4-{2-[4-(2,4-dioxo-1,3-diazinan-1-yl)phenyl]ethyl}-2-methylpiperazin-1-yl]pyridin-2-yl}amino)pyrimidin-4-yl]-2-methylphenyl}ethyl]-1,2,4-oxadiazole-5-carboxamide], the “circulating leukemia burden (CD19+CD5+ CLL cells per μL)” value (Dosage 1-4, dose-dependent manner, FIG. 1) is on record as “controlled circulating leukemia burden”. Also, the “CLL burden control (no increase from the initial tumor burden)” value (at Dosage 3 and Dosage 4) is reported as “Complete CLL burden control”.
